Experimental data reported in patent US20220169643A1, “ESTROGEN RECEPTOR DEGRADING PROTACS” (AstraZeneca AB, priority 2019, published 2022).

Molecular target: T1, Estrogen Receptor Alpha Ligand binding domain (ER alpha-LBD (GST)) (Homo sapiens, UniProt P03372)
T1 construct: made in house
T1 sequence (P03372 307-554): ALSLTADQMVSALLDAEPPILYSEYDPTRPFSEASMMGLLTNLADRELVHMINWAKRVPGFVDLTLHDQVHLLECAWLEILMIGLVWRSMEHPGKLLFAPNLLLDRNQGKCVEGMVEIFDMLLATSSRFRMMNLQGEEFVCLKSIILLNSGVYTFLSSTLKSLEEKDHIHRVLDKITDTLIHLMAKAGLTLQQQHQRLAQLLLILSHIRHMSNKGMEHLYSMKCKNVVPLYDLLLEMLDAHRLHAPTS
Assay: ERα Binding Assay (LanthaScreen TR-FRET competition)
Conditions: competitive displacement of Fluormone ES2 tracer from recombinant human ER alpha-LBD (residues 307-554), 4 hours at room temperature
Experimental: The ability of compounds to bind to isolated Estrogen Receptor Alpha Ligand binding domain (ER alpha-LBD (GST)) was assessed in competition assays using a LanthaScreen™ Time-Resolved Fluorescence Resonance Energy Transfer (TR-FRET) detection end-point. For the LanthaScreen TR-FRET endpoint, a suitable fluorophore (Fluormone ES2, ThermoFisher, Product code P2645) and recombinant human Estrogen Receptor alpha ligand binding domain, residues 307-554 (expressed and purified in-house) were used to measure compound binding. The assay principle is that ER alpha-LBD (GST) is added to a fluorescent ligand to form a receptor/fluorophore complex. A terbium-labelled anti-GST antibody (Product code PV3551) is used to indirectly label the receptor by binding to its GST tag, and competitive binding is detected by a test compound's ability to displace the fluorescent ligand, resulting in a loss of TR-FRET signal between the Th-anti-GST antibody and the tracer. The assay was performed as follows with all reagent additions carried out using the Beckman Coulter BioRAPTR FRD microfluidic workstation: • 1. Acoustic dispense 120 nL of the test compound into a black low volume 384 well assay plates. • 2. Prepare 1×ER alpha-LBD/Tb-anti-GST Ab in ES2 screening buffer and incubate for 15 minutes. • 3. Dispense 6 μL of the 1×[…]/Th-anti-GST Ab reagent into each well of the assay plate followed by 6 μL of Fluorophore reagent into each well of the assay plate • 4. Cover the assay plate to protect the reagents from light and evaporation, and incubate at room temperature for 4 hours. • 5. Excite at 337 nm and measure the fluorescent emission signal of each well at 490 nm and 520 nm using the BMG PheraSTAR.
Compounds were dosed directly from a compound source microplate containing serially diluted compound (4 wells containing 10 mM, […] and 10 nM final compound respectively) to an assay microplate using the Labcyte Echo 550. The Echo 550 is a liquid handler that uses acoustic technology to perform direct microplate-to-microplate transfers of DMSO compound solutions and the system can be programmed to transfer multiple small nL volumes of compound from the different source plate wells to give the desired serial dilution of compound in the assay which is then back-filled to normalise the DMSO concentration across the dilution range.
In total 120 nL of compound plus DMSO were added to each well and compounds were tested in a 12-point concentration response format over a final compound concentration range of 10, 2.917, 1.042, 0.2083, 0.1, 0.0292, 0.0104, 0.002083, 0.001, 0.0002917, 0.0001042, and 0.00001 μM respectively. TR-FRET dose response data obtained with each compound was exported into a suitable software package (such as Origin or Genedata) to perform curve fitting analysis. Competitive ER alpha binding was expressed as an IC50 value. This was determined by calculation of the concentration of compound that was required to give a 50% reduction in tracer compound binding to ER alpha-LBD.

| Structure (SMILES) | IC50 |
| --- | --- |
| C[C@@H]1Cc2c([nH]c3ccccc23)[C@@H](c2cnc(N3CCC(CN4CCC5(CC4)CCN(c4ccc6c(c4)CN(C4CCC(=O)NC4=O)C6=O)CC5)CC3)nc2)N1CC(C)(C)F (mixture of isomers) [Example 7, 3-(5-{9-[(1-{5-[(1R,3R)-2-(2-fluoro-2-methylpropyl)-3-methyl-2,3,4,9-tetrahydro-1H-beta-carbolin-1-yl]pyrimidin-2-yl}piperidin-4-yl)methyl]-3,9-diazaspiro[5.5]undecan-3-yl}-1-oxo-1,3-dihydro-2H-isoindol-2-yl)piperidine-2,6-dione] | 4.7 nM |
| C[C@@H]1Cc2c([nH]c3ccccc23)[C@@H](c2cnc(OCCCCCN3CCN(c4ccc5c(c4)CN(C4CCC(=O)NC4=O)C5=O)CC3)nc2)N1CC(C)(C)F (stereo partly drawn) [Example 40, 3-(5-{4-[5-({5-[(1R,3R)-2-(2-fluoro-2-methylpropyl)-3-methyl-2,3,4,9-tetrahydro-1H-beta-carbolin-1-yl]pyrimidin-2-yl}oxy)pentyl]piperazin-1-yl}-1-oxo-1,3-dihydro-2H-isoindol-2-yl)piperidine-2,6-dione] | 7 nM |
| C[C@@H]1Cc2c([nH]c3ccccc23)[C@@H](c2cnc(N3CC(CCN4CCN(c5ccc6c(c5)CN(C5CCC(=O)NC5=O)C6=O)CC4)C3)nc2)N1CC(C)(C)F (stereo partly drawn) [Example 37, 3-(5-{4-[2-(1-{5-[(1R,3R)-2-(2-fluoro-2-methylpropyl)-3-methyl-2,3,4,9-tetrahydro-1H-beta-carbolin-1-yl]pyrimidin-2-yl}azetidin-3-yl)ethyl]piperazin-1-yl}-1-oxo-1,3-dihydro-2H-isoindol-2-yl)piperidine-2,6-dione] | 3.3 nM |
| C[C@@H]1Cc2c([nH]c3ccccc23)[C@@H](c2ccc(N3CCC(CN4CCC5(CC4)CCN(c4ccc6c(c4)CN(C4CCC(=O)NC4=O)C6=O)CC5)CC3)cn2)N1CC(C)(C)F (stereo partly drawn) [Example 21, 3-(5-{9-[(1-{6-[(1S,3R)-2-(2-fluoro-2-methylpropyl)-3-methyl-2,3,4,9-tetrahydro-1H-beta-carbolin-1-yl]pyridin-3-yl}piperidin-4-yl)methyl]-3,9-diazaspiro[5.5]undecan-3-yl}-1-oxo-1,3-dihydro-2H-isoindol-2-yl)piperidine-2,6-dione] | 7.6 nM |
| C[C@@H]1Cc2c([nH]c3ccccc23)[C@@H](c2cnc(N3CCC(CCCN4CCN(c5ccc6c(c5)CN(C5CCC(=O)NC5=O)C6=O)CC4)CC3)nc2)N1CC(F)(F)F (stereo partly drawn) [Example 34, 3-(5-{4-[3-(1-{5-[(1R,3R)-3-methyl-2-(2,2,2-trifluoroethyl)-2,3,4,9-tetrahydro-1H-beta-carbolin-1-yl]pyrimidin-2-yl}piperidin-4-yl)propyl]piperazin-1-yl}-1-oxo-1,3-dihydro-2H-isoindol-2-yl)piperidine-2,6-dione] | 7.3 nM |
| C[C@@H]1Cc2c([nH]c3ccccc23)[C@@H](c2cnc(N3CCC(CN4CCN(CC5CCN(c6ccc7c(c6)CN(C6CCC(=O)NC6=O)C7=O)CC5)CC4)CC3)nc2)N1CC(C)(C)F (some centres unmarked) [Example 6] | 5.6 nM |
| C[C@@H]1Cc2c([nH]c3ccccc23)[C@@H](c2cnc(N3CCC(CN(C)C4CN(CC5CCN(c6ccc7c(c6)CN(C6CCC(=O)NC6=O)C7=O)CC5)C4)CC3)nc2)N1CC(C)(C)F (stereo partly drawn) [Example 16, 3-(5-{4-[(3-{[(1-{5-[(1R,3R)-2-(2-fluoro-2-methylpropyl)-3-methyl-2,3,4,9-tetrahydro-1H-beta-carbolin-1-yl]pyrimidin-2-yl}piperidin-4-yl)methyl](methyl)amino}azetidin-1-yl)methyl]piperidin-1-yl}-1-oxo-1,3-dihydro-2H-isoindol-2-yl)piperidine-2,6-dione] | 3 nM |
| C[C@@H]1Cc2c([nH]c3ccccc23)[C@@H](c2cnc(N3CCC(CCN4CCN(c5ccc6c(c5)CN(C5CCC(=O)NC5=O)C6=O)CC4)CC3)nc2)N1CC(F)(F)F (stereo partly drawn) [Example 15, 3-(5-{4-[2-(1-{5-[(1R,3R)-3-methyl-2-(2,2,2-trifluoroethyl)-2,3,4,9-tetrahydro-1H-beta-carbolin-1-yl]pyrimidin-2-yl}piperidin-4-yl)ethyl]piperazin-1-yl}-1-oxo-1,3-dihydro-2H-isoindol-2-yl)piperidine-2,6-dione] | 3.7 nM |
| C[C@@H]1Cc2c([nH]c3ccccc23)[C@@H](c2cnc(N3CCC(OCCCN4CCN(c5ccc6c(c5)CN(C5CCC(=O)NC5=O)C6=O)CC4)CC3)nc2)N1CC(C)(C)F (stereo partly drawn) [Example 38, 3-[5-(4-{3-[(1-{5-[(1R,3R)-2-(2-fluoro-2-methylpropyl)-3-methyl-2,3,4,9-tetrahydro-1H-beta-carbolin-1-yl]pyrimidin-2-yl}piperidin-4-yl)oxy]propyl}piperazin-1-yl)-1-oxo-1,3-dihydro-2H-isoindol-2-yl]piperidine-2,6-dione] | 3.6 nM |
| C[C@@H]1Cc2c([nH]c3ccccc23)[C@@H](c2cnc(N3CCC(CCCN4CCN(c5ccc6c(c5)CN(C5CCC(=O)NC5=O)C6=O)CC4)CC3)nc2)N1CC(C)(C)F (stereo partly drawn) [Example 8, 3-(5-{4-[3-(1-{5-[(1R,3R)-2-(2-fluoro-2-methylpropyl)-3-methyl-2,3,4,9-tetrahydro-1H-beta-carbolin-1-yl]pyrimidin-2-yl}piperidin-4-yl)propyl]piperazin-1-yl}-1-oxo-1,3-dihydro-2H-isoindol-2-yl)piperidine-2,6-dione] | 4.3 nM |
| C[C@@H]1Cc2c([nH]c3ccccc23)[C@@H](c2cnc(N3CCC(OCCN4CCN(c5ccc6c(c5)CN(C5CCC(=O)NC5=O)C6=O)CC4)CC3)nc2)N1CC(C)(C)F (stereo partly drawn) [Example 4, 3-[5-[4-[2-[[1-[5-[(1R,3R)-2-(2-Fluoro-2-methyl-propyl)-3-methyl-1,3,4,9-tetrahydropyrido[3,4-b]indol-1-yl]pyrimidin-2-yl]-4-piperidyl]oxy]ethyl]piperazin-1-yl]-1-oxo-isoindolin-2-yl]piperidine-2,6-dione] | 2.1 nM |
| C[C@@H]1Cc2c([nH]c3ccccc23)[C@@H](c2cnc(N3CCC(CCN4CCC5(CC4)CCN(c4ccc6c(c4)CN(C4CCC(=O)NC4=O)C6=O)CC5)CC3)nc2)N1CC(C)(C)F (stereo partly drawn) [Example 11, 3-(5-{9-[2-(1-{5-[(1R,3R)-2-(2-fluoro-2-methylpropyl)-3-methyl-2,3,4,9-tetrahydro-1H-beta-carbolin-1-yl]pyrimidin-2-yl}piperidin-4-yl)ethyl]-3,9-diazaspiro[5.5]undecan-3-yl}-1-oxo-1,3-dihydro-2H-isoindol-2-yl)piperidine-2,6-dione] | 1.2 nM |
| C[C@@H]1Cc2c([nH]c3ccccc23)[C@@H](c2cnc(N3CCC(CN4CCOC5(CC4)CCN(c4ccc6c(c4)CN(C4CCC(=O)NC4=O)C6=O)CC5)CC3)nc2)N1CC(C)(C)F (stereo partly drawn) [Example 19, 3-(5-{10-[(1-{5-[(1R,3R)-2-(2-fluoro-2-methylpropyl)-3-methyl-2,3,4,9-tetrahydro-1H-beta-carbolin-1-yl]pyrimidin-2-yl}piperidin-4-yl)methyl]-7-oxa-3,10-diazaspiro[5.6]dodecan-3-yl}-1-oxo-1,3-dihydro-2H-isoindol-2-yl)piperidine-2,6-dione] | 5.3 nM |
| C[C@@H]1Cc2c([nH]c3ccccc23)[C@@H](c2cnc(N3CCC4(CCN(CCN5CCN(c6ccc7c(c6)CN(C6CCC(=O)NC6=O)C7=O)CC5=O)CC4)CC3)nc2)N1CC(C)(C)F (stereo partly drawn) [Example 26, 3-(5-{4-[2-(9-{5-[(1R,3R)-2-(2-fluoro-2-methylpropyl)-3-methyl-2,3,4,9-tetrahydro-1H-beta-carbolin-1-yl]pyrimidin-2-yl}-3,9-diazaspiro[5.5]undecan-3-yl)ethyl]-3-oxopiperazin-1-yl}-1-oxo-1,3-dihydro-2H-isoindol-2-yl)piperidine-2,6-dione] | 18 nM |
